US20050208139A1 (Ascend Therapeutics, Inc., priority 2004, published 2005)

Columns and labels:
[1] = Effects of UV light on isomerization (Example 4); format: physicochemical; conditions: room temperature
estrogen receptors = conditions: in vitro; cited from earlier work
[2] = Effects of isopropyl myristate, nature of the alcohol and alcohol/phosphate buffer ratio on isomerization (Example 2); format: physicochemical
Description: The initial E/Z ratio was 63%/37%. • Reference solution: Gel formulation without the gelling agent KLUCEL • Solution II: Reference solution without Isopropyl myristate and containing ethanol • Solution III: Solution II with the ethanol replaced by Isopropyl alcohol • Solution IV: Solution II with the ethanol/buffer ratio of 50/50 instead of 66.5/33.5

[3] = Isomerization of 4-hydroxy tamoxifen in hydroalcoholic solutions at 25°, 30° and 40° C., Z/E isomers by HPLC (Example 1); format: physicochemical
Description: Hydroalcoholic solutions containing 4-hydroxy tamoxifen were prepared, based on the following gel formula: […]
In the hydroalcoholic solutions, phosphate buffer was substituted for Klucel. The composition of the buffer was as follows:
At each of the stated concentrations, separate solutions containing Z-4-hydroxy tamoxifen or a mixture of Z- and E-4-hydroxy tamoxifen were prepared.
Each solution was subdivided into three parts in 30 ml brown glass bottles, then placed in ovens regulated at 25°, 30°, and 40° C.
The relative amounts of Z- and E-4-hydroxy tamoxifen isomers were determined at the initiation of the study and at 2-week, 1-month, 2-month, 3-month, 4-month and 5-month time points.
Operating parameters for the HPLC were as follows:
The order of elution was as follows: • 4-OHT E: retention time about 13.3 min • 4-OHT Z: retention time about 15.0 min.
Percentages of each isomer were calculated using the following formulas: [formula] [formula] D. Data fitting:
The reversible isomerization reaction and the equilibrium reaches are lied by the following relationship: [formula] where • A0=initial concentration of the reagent • Aeq=concentration of the same reagent at equilibrium • A=the concentration of A at time t • kf=forward rate constant • kr=reverse rate constant • t=time measured in months
A plot of log [formula] as a function of time gives a straight line fit with a slope of [formula] and a y-intercept of 0. E. Results

[4] = 254 nm, T0, degradation impurity (phenanthrene derivative)

CCC(=C(c1ccc(O)cc1)c1ccc(OCCN(C)C)cc1)c1ccccc1 [4-hydroxy tamoxifen, 1-[4-(2-N-dimethylaminoethoxy)phenyl]-1-(4-hydroxyphenyl)-2-phenylbut-1-ene]
% E ([1]; 254 nm, 5 min): 3.0%
% Z ([1]; 254 nm, 5 min): 91.5%
% imp 1 ([1]; 254 nm, 5 min): 0.0%
% imp 2 ([1]; 254 nm, 5 min): 5.5%
% E ([1]; 254 nm, 10 min): 3.1%
% Z ([1]; 254 nm, 10 min): 90.5%
% imp 1 ([1]; 254 nm, 10 min): 0.0%
% imp 2 ([1]; 254 nm, 10 min): 6.3%
% E ([1]; 254 nm, 15 min): 3.5%
% Z ([1]; 254 nm, 15 min): 86.5%
% imp 1 ([1]; 254 nm, 15 min): 1.3%
% imp 2 ([1]; 254 nm, 15 min): 8.7%
% E ([1]; 254 nm, 30 min): 5.7%
% Z ([1]; 254 nm, 30 min): 74.4%
% imp 1 ([1]; 254 nm, 30 min): 4.3%
% imp 2 ([1]; 254 nm, 30 min): 15.6%
% E ([1]; 254 nm, 45 min): 6.7%
% Z ([1]; 254 nm, 45 min): 65.1%
% imp 1 ([1]; 254 nm, 45 min): 7.8%
% imp 2 ([1]; 254 nm, 45 min): 20.4%
% E ([1]; 254 nm, 1 h): 7.2%
% Z ([1]; 254 nm, 1 h): 56.6%
% imp 1 ([1]; 254 nm, 1 h): 10.2%
% imp 2 ([1]; 254 nm, 1 h): 26.0%
% E ([1]; 254 nm, 1 h 15): 7.5%
% Z ([1]; 254 nm, 1 h 15): 52.7%
% imp 1 ([1]; 254 nm, 1 h 15): 11.4%
% imp 2 ([1]; 254 nm, 1 h 15): 28.4%
% E ([1]; 254 nm, 1 h 30): 8.2%
% Z ([1]; 254 nm, 1 h 30): 43.5%
% imp 1 ([1]; 254 nm, 1 h 30): 14.0%
% imp 2 ([1]; 254 nm, 1 h 30): 34.2%
% E ([1]; 254 nm, 1 h 45): 8.2%
% Z ([1]; 254 nm, 1 h 45): 38.2%
% imp 1 ([1]; 254 nm, 1 h 45): 16.5%
% imp 2 ([1]; 254 nm, 1 h 45): 37.1%
% E ([1]; 254 nm, 2 h): 8.3%
% Z ([1]; 254 nm, 2 h): 32.5%
% imp 1 ([1]; 254 nm, 2 h): 18.2%
% imp 2 ([1]; 254 nm, 2 h): 41.0%
% E ([1]; 254 nm, T0): 1.7%
% Z ([1]; 254 nm, T0): 98.3%
% imp 1 [1, 4]: 0.0%
% imp 2 [1, 4]: 0.0%
% E ([1]; 380 nm, 5 min): 1.6%
% Z ([1]; 380 nm, 5 min): 98.4%
% E ([1]; 380 nm, 10 min): 1.7%
% Z ([1]; 380 nm, 10 min): 98.3%
% E ([1]; 380 nm, 15 min): 1.6%
% Z ([1]; 380 nm, 15 min): 98.4%
% E ([1]; 380 nm, 30 min): 1.8%
% Z ([1]; 380 nm, 30 min): 98.2%
% E ([1]; 380 nm, 45 min): 1.9%
% Z ([1]; 380 nm, 45 min): 98.1%
% E ([1]; 380 nm, 1 h): 2.0%
% Z ([1]; 380 nm, 1 h): 98.0%
% E ([1]; 380 nm, 1 h 15): 2.8%
% Z ([1]; 380 nm, 1 h 15): 97.2%
% E ([1]; 380 nm, 1 h 30): 2.9%
% Z ([1]; 380 nm, 1 h 30): 97.1%
% E ([1]; 380 nm, 1 h 45): 2.9%
% Z ([1]; 380 nm, 1 h 45): 97.1%
% E ([1]; 380 nm, 2 h): 3.3%
% Z ([1]; 380 nm, 2 h): 96.7%
% E ([1]; 380 nm, T0): 1.6%
% Z ([1]; 380 nm, T0): 98.4%
isomerization process at 254 nm compared with 380 nm ([1]; UV light): faster than at 380 nm
time in which the isomerization process can be observed under UV light [1]: 5 min
potency as measured by binding affinity to estrogen receptors, compared with tamoxifen (estrogen receptors): more potency than tamoxifen
effect of replacing ethanol by isopropyl alcohol and eliminating the isopropyl myristate on the reversible kinetics ([2]; 0.06% solutions): no significant effect
effect of increasing the aqueous vehicle (buffer) concentration from 33.5% to 50% on the rate constant ([2]; 25° C. and 30° C.): greatly increases the rate constant
effect of increasing the aqueous vehicle (buffer) concentration from 33.5% to 50% on the rate constant ([2]; 40° C.): less pronounced
dependence of the isomerization rate on the dielectric constant of the solvent medium ([2]; water concentration in the medium increases): increased as the dielectric constant of the solvent medium is increased
magnitude of the rate constants for the reversible isomerism as nominal concentration varied from 0.02% to 0.10% [3]: increased linearly
